Patent US6525001B1, “Substituted pyrimidine and pyridine herbicides” (Mid-American Commercialization Corporation, priority 1997, dated 2003)

How the values were obtained:
Assay type in all cases: in vivo
[1] = tested on: barnyardgrass (Echinochloa crus-galli); experiment: Test E pre-/postemergence/post directed; settings: PREEMERGENCE
Method in brief: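 Greenhouse pots; compound in non-phytotoxic solvent with surfactant, sprayed preemergence within one day of planting, postemergence at two to four leaf stage (three to twenty cm), or post directed to plant base and soil. Visual injury rated 13 to 21 days after application, 0 (none) to 100 (complete control).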

[2] = tested on: spring barley (Hordeum vulgare); experiment: Test D; design: key: 0 is no effect; settings: PREEMERGENCE
[3] = tested on: chickweed (Stellaria media); experiment: Test D; design: key: 0 is no effect; 100 is complete control; settings: POSTEMERGENCE
Experimental: (§1) Compounds evaluated in this test were formulated in a non-phytotoxic solvent mixture which included a surfactant and applied to plants that were in the 1- to 4-leaf stage (postemergence application). A mixture of sandy loam soil and greenhouse potting mix in a 60:40 ratio was used for the postemergence test.
(§2) Plantings of these crops and weed species were adjusted to produce plants of appropriate size for the postemergence test. All plant species were grown using normal greenhouse practices. Crop and weed species include alfalfa (Medicago sativa), annual bluegrass (Poa annua), blackgrass (Alopecurus myosuroides), black nightshade (Solanum nigra), chickweed (Stellaria media), common poppy (Papaver rhoeas), deadnettle (Lamium amplexicaule), downy brome (Bromus tectorum), field violet (Viola arvensis), galium 2 (Galium aparine), green foxtail (Setaria viridis), Italian ryegrass (Lolium multiflorum), jointed goatgrass (Aegilops cylindrica), kochia (Kochia scoparia), lambsquarters (Chenopodium album), lentil (Lens culinaris), littleseed canarygrass (Phalaris minor), pea (Pisum sativum), potato (Solanum tuberosum), rape (Brassica napus), redroot pigweed (Amaranthus retroflexus), Russian thistle (Salsola kali), scentless chamomile (Matricaria inodora), sorghum (Sorghum vulgare), spring barley (Hordeum vulgare), sugar beet (Beta vulgaris), sunflower (Helianthus annuus), ivyleaf speedwell (Veronica hederaefolia), spring wheat (Triticum aestivum), winter wheat (Triticum aestivum), wild buckwheat (Polygonum convolvulus), wild mustard (Sinapis arvensis), wild oat (Avena fatua), windgrass (Apera spica-venti) and winter barley (Hordeum vulgare).
(§3) Treated plants and untreated controls were maintained in a greenhouse for approximately 21 to 28 days, after which all treated plants were compared to untreated controls and visually evaluated. Plant response ratings, summarized in Table D, are based upon a 0 to 100 scale where 0 is no effect and 100 is complete control. A dash response (−) means no test result.

rape (Brassica napus) = experiment: Test D; design: key: 0 is no effect; 100 is complete control; settings: POSTEMERGENCE
Experimental: as §1, §2, §3

[4] = tested on: deadnettle (Lamium amplexicaule); experiment: Test D; design: key: 0 is no effect; 100 is complete control; settings: POSTEMERGENCE
Experimental: as §1, §2, §3

[5] = tested on: black nightshade (Solanum nigra); experiment: Test D; design: key: 0 is no effect; 100 is complete control; settings: POSTEMERGENCE
Experimental: as §1, §2, §3

[6] = tested on: sugar beet (Beta vulgaris); experiment: Test D; design: key: 0 is no effect; 100 is complete control; settings: POSTEMERGENCE
Experimental: as §1, §2, §3

[7] = tested on: common poppy (Papaver rhoeas); experiment: Test D; design: key: 0 is no effect; 100 is complete control; settings: POSTEMERGENCE
Experimental: as §1, §2, §3

[8] = tested on: wild mustard (Sinapis arvensis); experiment: Test D; design: key: 0 is no effect; 100 is complete control; settings: POSTEMERGENCE
Experimental: as §1, §2, §3

[9] = tested on: littleseed canarygrass (Phalaris minor); experiment: Test D; settings: PREEMERGENCE
[10] = tested on: black nightshade (Solanum nigra); experiment: Test D; design: key: 0 is no effect; 100 is complete control; settings: PREEMERGENCE
[11] = tested on: winter barley (Hordeum vulgare); experiment: Test D; design: key: 0 is no effect; settings: PREEMERGENCE
[12] = tested on: scentless chamomile (Matricaria inodora); experiment: Test D; settings: PREEMERGENCE
wild oat (Avena fatua) = experiment: Test D; design: key: 0 is no effect; 100 is complete control; settings: PREEMERGENCE
[13] = tested on: Russian thistle (Salsola kali); experiment: Test D; settings: PREEMERGENCE
[14] = tested on: ivyleaf speedwell (Veronica hederaefolia); experiment: Test D; design: key: 0 is no effect; 100 is complete control; settings: PREEMERGENCE

SMILES: Cc1cnc(-c2ccc(C(F)(F)F)cc2)nc1Cc1cccc(OC(F)(F)F)c1 [Compound 15]
- Plant response rating, Barnyardgrass ([1]; Rate 125 g/ha): 40
- Plant response rating, Barnyardgrass ([1]; Rate 250 g/ha): 75

SMILES: CCc1cnc(-c2ccc(C(F)(F)F)cc2)nc1Cc1cccc(C(F)(F)F)c1 [Compound 22]
- Plant response rating, Spring Barley ([2]; Rate 62 g/ha): 0
- Plant response rating, Spring Barley ([2]; Rate 125 g/ha): 10
- Plant response rating, Spring Barley ([2]; Rate 250 g/ha): 2
- Plant response rating, Chickweed ([3]; Rate 62 g/ha): 60
- Plant response rating, Chickweed ([3]; Rate 125 g/ha): 100
- Plant response rating, Rape (rape (Brassica napus); Rate 62 g/ha): 90
- Plant response rating, Rape (rape (Brassica napus); Rate 125 g/ha): 90
- Plant response rating, Deadnettle ([4]; Rate 62 g/ha): 50
- Plant response rating, Deadnettle ([4]; Rate 125 g/ha): 90
- Plant response rating, Blk nightshade ([5]; Rate 62 g/ha): 90
- Plant response rating, Blk nightshade ([5]; Rate 125 g/ha): 100
- Plant response rating, Sugar beet ([6]; Rate 62 g/ha): 100
- Plant response rating, Sugar beet ([6]; Rate 125 g/ha): 100
- Plant response rating, Common poppy ([7]; Rate 62 g/ha): 100
- Plant response rating, Common poppy ([7]; Rate 125 g/ha): 100
- Plant response rating, Wild mustard ([8]; Rate 62 g/ha): 100
- Plant response rating, Wild mustard ([8]; Rate 125 g/ha): 100
- Plant response rating, LS canarygrass ([9]; Rate 62 g/ha): 20
- Plant response rating, LS canarygrass ([9]; Rate 125 g/ha): 60
- Plant response rating, LS canarygrass ([9]; Rate 250 g/ha): 50
- Plant response rating, Blk nightshade ([10]; Rate 62 g/ha): 10
- Plant response rating, Blk nightshade ([10]; Rate 125 g/ha): 60
- Plant response rating, Blk nightshade ([10]; Rate 250 g/ha): 50
- Plant response rating, Barley (winter) ([11]; Rate 62 g/ha): 0
- Plant response rating, Barley (winter) ([11]; Rate 125 g/ha): 20
- Plant response rating, Barley (winter) ([11]; Rate 250 g/ha): 10
- Plant response rating, Scentless chamo ([12]; Rate 62 g/ha): 60
- Plant response rating, Scentless chamo ([12]; Rate 125 g/ha): 70
- Plant response rating, Scentless chamo ([12]; Rate 250 g/ha): 70
- Plant response rating, Wild oat (wild oat (Avena fatua); Rate 62 g/ha): 0
- Plant response rating, Wild oat (wild oat (Avena fatua); Rate 125 g/ha): 30
- Plant response rating, Wild oat (wild oat (Avena fatua); Rate 250 g/ha): 30

SMILES: Cc1cnc(-n2ccc(C(F)(F)F)n2)nc1Cn1ccc(C(F)(F)F)n1 [Compound 52]
- Plant response rating, Russian thistle ([13]; Rate 31 g/ha): 30
- Plant response rating, Russian thistle ([13]; Rate 62 g/ha): 85
- Plant response rating, Russian thistle ([13]; Rate 125 g/ha): 85
- Plant response rating, Spring Barley ([2]; Rate 31 g/ha): 50
- Plant response rating, Spring Barley ([2]; Rate 62 g/ha): 60
- Plant response rating, Spring Barley ([2]; Rate 125 g/ha): 80
- Plant response rating, Chickweed ([3]; Rate 16 g/ha): 30
- Plant response rating, Chickweed ([3]; Rate 31 g/ha): 50
- Plant response rating, Chickweed ([3]; Rate 62 g/ha): 70
- Plant response rating, Chickweed ([3]; Rate 125 g/ha): 80
- Plant response rating, Rape (rape (Brassica napus); Rate 16 g/ha): 65
- Plant response rating, Rape (rape (Brassica napus); Rate 31 g/ha): 65
- Plant response rating, Rape (rape (Brassica napus); Rate 62 g/ha): 98
- Plant response rating, Rape (rape (Brassica napus); Rate 125 g/ha): 85
- Plant response rating, Deadnettle ([4]; Rate 16 g/ha): 45
- Plant response rating, Deadnettle ([4]; Rate 31 g/ha): 100
- Plant response rating, Deadnettle ([4]; Rate 62 g/ha): 100
- Plant response rating, Deadnettle ([4]; Rate 125 g/ha): 98
- Plant response rating, Blk nightshade ([5]; Rate 16 g/ha): 55
- Plant response rating, Blk nightshade ([5]; Rate 31 g/ha): 60
- Plant response rating, Blk nightshade ([5]; Rate 62 g/ha): 65
- Plant response rating, Blk nightshade ([5]; Rate 125 g/ha): 65
- Plant response rating, Sugar beet ([6]; Rate 16 g/ha): 100
- Plant response rating, Sugar beet ([6]; Rate 31 g/ha): 100
- Plant response rating, Sugar beet ([6]; Rate 62 g/ha): 100
- Plant response rating, Sugar beet ([6]; Rate 125 g/ha): 100
- Plant response rating, Common poppy ([7]; Rate 16 g/ha): 60
- Plant response rating, Common poppy ([7]; Rate 31 g/ha): 100
- Plant response rating, Common poppy ([7]; Rate 62 g/ha): 100
- Plant response rating, Common poppy ([7]; Rate 125 g/ha): 100
- Plant response rating, Wild mustard ([8]; Rate 16 g/ha): 60
- Plant response rating, Wild mustard ([8]; Rate 31 g/ha): 70
- Plant response rating, Wild mustard ([8]; Rate 62 g/ha): 98
- Plant response rating, Wild mustard ([8]; Rate 125 g/ha): 100
- Plant response rating, LS canarygrass ([9]; Rate 31 g/ha): 30
- Plant response rating, LS canarygrass ([9]; Rate 62 g/ha): 60
- Plant response rating, LS canarygrass ([9]; Rate 125 g/ha): 90
- Plant response rating, Blk nightshade ([10]; Rate 31 g/ha): 10
- Plant response rating, Blk nightshade ([10]; Rate 62 g/ha): 40
- Plant response rating, Blk nightshade ([10]; Rate 125 g/ha): 90
- Plant response rating, Barley (winter) ([11]; Rate 31 g/ha): 50
- Plant response rating, Barley (winter) ([11]; Rate 62 g/ha): 50
- Plant response rating, Barley (winter) ([11]; Rate 125 g/ha): 60
- Plant response rating, Wild oat (wild oat (Avena fatua); Rate 31 g/ha): 40
- Plant response rating, Wild oat (wild oat (Avena fatua); Rate 62 g/ha): 50
- Plant response rating, Wild oat (wild oat (Avena fatua); Rate 125 g/ha): 60

SMILES: CCc1cnc(-n2ccc(C(F)(F)F)n2)nc1Cc1cccc(C(F)(F)F)c1 [Compound 46]
- Plant response rating, Russian thistle ([13]; Rate 31 g/ha): 30
- Plant response rating, Russian thistle ([13]; Rate 62 g/ha): 30
- Plant response rating, Ivyleaf speedwe ([14]; Rate 31 g/ha): 100
- Plant response rating, Ivyleaf speedwe ([14]; Rate 62 g/ha): 100
- Plant response rating, Spring Barley ([2]; Rate 31 g/ha): 30
- Plant response rating, Spring Barley ([2]; Rate 62 g/ha): 5
- Plant response rating, LS canarygrass ([9]; Rate 31 g/ha): 70
- Plant response rating, LS canarygrass ([9]; Rate 62 g/ha): 90
- Plant response rating, Blk nightshade ([10]; Rate 31 g/ha): 50
- Plant response rating, Blk nightshade ([10]; Rate 62 g/ha): 50
- Plant response rating, Barley (winter) ([11]; Rate 31 g/ha): 50
- Plant response rating, Barley (winter) ([11]; Rate 62 g/ha): 2
- Plant response rating, Scentless chamo ([12]; Rate 31 g/ha): 65
- Plant response rating, Scentless chamo ([12]; Rate 62 g/ha): 70
- Plant response rating, Wild oat (wild oat (Avena fatua); Rate 31 g/ha): 50
- Plant response rating, Wild oat (wild oat (Avena fatua); Rate 62 g/ha): 70

SMILES: Cc1cnc(-n2cnc(C(F)(F)F)n2)nc1Cn1ccc(C(F)(F)F)n1 [Compound 51]
- Plant response rating, Russian thistle ([13]; Rate 31 g/ha): 60
- Plant response rating, Russian thistle ([13]; Rate 62 g/ha): 70
- Plant response rating, Ivyleaf speedwe ([14]; Rate 31 g/ha): 100
- Plant response rating, Ivyleaf speedwe ([14]; Rate 62 g/ha): 100
- Plant response rating, Spring Barley ([2]; Rate 31 g/ha): 70
- Plant response rating, Spring Barley ([2]; Rate 62 g/ha): 80
- Plant response rating, LS canarygrass ([9]; Rate 31 g/ha): 80
- Plant response rating, LS canarygrass ([9]; Rate 62 g/ha): 90
- Plant response rating, Blk nightshade ([10]; Rate 31 g/ha): 100
- Plant response rating, Blk nightshade ([10]; Rate 62 g/ha): 95
- Plant response rating, Barley (winter) ([11]; Rate 31 g/ha): 50
- Plant response rating, Barley (winter) ([11]; Rate 62 g/ha): 90
- Plant response rating, Scentless chamo ([12]; Rate 31 g/ha): 65
- Plant response rating, Scentless chamo ([12]; Rate 62 g/ha): 70
- Plant response rating, Wild oat (wild oat (Avena fatua); Rate 31 g/ha): 80
- Plant response rating, Wild oat (wild oat (Avena fatua); Rate 62 g/ha): 95

SMILES: Cc1cnc(-n2ccc(C(F)(F)F)n2)nc1Cc1cccc(C(F)(F)F)c1 [Example 2, 5-methyl-4-[[3-(trifluoromethyl)phenyl]methyl]-2-[3-(trifluoromethyl)-1H-pyrazol-1-yl]pyrimidine]
- Plant response rating, Barnyardgrass ([1]; Rate 32 g/ha): 20
- Plant response rating, Barnyardgrass ([1]; Rate 64 g/ha): 95
